melting point | SMILES
140 to 141 °C | COc1ccc(S(=O)(=O)N[C@@H]2c3ccccc3CCC[C@H]2O)cc1 (relative stereo) [Example 18, trans-5-[N-(4-Methoxyphenyl)-sulfonylamino]-6,7,8,9-tetrahydro-5H-benzocyclohepten-6-ol]
172 to 173 °C | O=S(=O)(N[C@@H]1c2ccccc2CCC[C@H]1O)c1ccc(Cl)cc1 (relative stereo) [Example 19, trans-5-[N-(4-Chlorophenyl)-sulfonylamino]-6,7,8,9-tetrahydro-5H-benzocyclohepten-6-ol]
128 to 128.2 °C | O=S(=O)(N[C@@H]1c2ccccc2CCC[C@H]1O)c1ccccc1 (relative stereo) [Example 16, trans-5-(N-Phenylsulfonylamino)-6,7,8,9-tetrahydro-5H-benzocyclohepten-6-ol]
124.5 to 125.1 °C | Cc1ccc(S(=O)(=O)N[C@@H]2c3ccccc3CCC[C@H]2O)cc1 (relative stereo) [Example 17, trans-5-[N-(4-Methylphenyl)-sulfonylamino]-6,7,8,9-tetrahydro-5H-benzocyclo hepten-6-ol]

The remaining lines, values behind:

SMILES | melting point
CN(C1CCCOc2ccccc21)S(C)(=O)=O (stereo not drawn) [Example 8, 5-(N-Methyl-N-methylsulfonylamino)-2,3,4,5-tetrahydro-1-benzoxepine] | 143 to 145 °C
CCc1ccc(S(=O)(=O)N[C@@H]2c3cc([N+](=O)[O-])ccc3CCC[C@H]2O)cc1 (relative stereo) [Example 20, trans-5-[N-(4-Ethylphenyl)-sulfonylamino]-3-nitro-6,7,8,9-tetrahydro-5H-benzocyclohepten-6-ol] | 159 to 161 °C
